Assay results published in the NIST ThermoML archive (doi:10.1021/je401120a).

Test: xn = mol fraction of the nth substance listed
Settings: 101 kPa, Liquid; for electrical conductivity: Crison conductimeter (model GLP31); for speed of sound: Pulse-echo method; for mass density: Vibrating tube method

CCC[n+]1ccccc1.F[B-](F)(F)F [1-propylpyridinium tetrafluoroborate] + CO
Settings | electrical conductivity [S/m] | mass density [kg/m3] | speed of sound [m/s] | viscosity [mPa·s]
293.15 K, x1 = 0.028 | – | 846.441 | 1164.9 | –
293.15 K, x1 = 0.0313 | 2.58 | – | – | –
293.15 K, x1 = 0.0365 | 2.84 | – | – | –
293.15 K, x1 = 0.0422 | 3.07 | – | – | –
293.15 K, x1 = 0.0505 | – | – | – | 1.267
293.15 K, x1 = 0.0577 | – | 893.625 | 1208.5 | –
293.15 K, x1 = 0.0658 | 3.66 | – | – | –
293.15 K, x1 = 0.0775 | 3.86 | – | – | –
293.15 K, x1 = 0.0894 | 4.05 | – | – | –
293.15 K, x1 = 0.0967 | – | 944.389 | 1257.2 | –
293.15 K, x1 = 0.0993 | – | – | – | 2.52
293.15 K, x1 = 0.1294 | 4.37 | – | – | –
293.15 K, x1 = 0.1409 | 4.4 | – | – | –
293.15 K, x1 = 0.1459 | – | 995.788 | 1311.1 | –
293.15 K, x1 = 0.1703 | 4.48 | – | – | –
293.15 K, x1 = 0.191 | – | – | – | 5.73
293.15 K, x1 = 0.1952 | – | 1036.49 | 1362.9 | –
293.15 K, x1 = 0.2002 | 4.41 | – | – | –
293.15 K, x1 = 0.2456 | 4.22 | – | – | –
293.15 K, x1 = 0.2819 | 3.93 | – | – | –
293.15 K, x1 = 0.291 | – | – | – | 9.737
293.15 K, x1 = 0.3213 | – | 1110.62 | 1458 | –
293.15 K, x1 = 0.3507 | 3.46 | – | – | –
293.15 K, x1 = 0.3918 | – | – | – | 14.39
293.15 K, x1 = 0.3937 | 3.13 | – | – | –
293.15 K, x1 = 0.4002 | – | 1143.05 | 1496.5 | –
293.15 K, x1 = 0.4334 | 2.77 | – | – | –
293.15 K, x1 = 0.464 | 2.55 | – | – | –
293.15 K, x1 = 0.4929 | – | – | – | 20.26
293.15 K, x1 = 0.4965 | – | 1173.27 | 1541.5 | –
293.15 K, x1 = 0.5398 | 1.98 | – | – | –
293.15 K, x1 = 0.5988 | – | 1198.33 | 1575.7 | –
293.15 K, x1 = 0.6117 | – | – | – | 29.28
293.15 K, x1 = 0.635 | 1.46 | – | – | –
293.15 K, x1 = 0.6904 | – | 1216.19 | 1598.4 | –
293.15 K, x1 = 0.7331 | – | – | – | 46.22
293.15 K, x1 = 0.7918 | 0.639 | – | – | –
293.15 K, x1 = 0.7923 | – | – | – | 61.38
293.15 K, x1 = 0.8011 | – | 1233.62 | 1621.5 | –
293.15 K, x1 = 0.8425 | – | – | – | 77.91
293.15 K, x1 = 0.8824 | – | 1244.23 | 1637.1 | –
293.15 K, x1 = 0.894 | 0.422 | – | – | –
293.15 K, x1 = 0.8956 | – | – | – | 99.92
293.15 K, x1 = 0.9384 | 0.355 | – | – | –
293.15 K, x1 = 0.94 | – | 1250.69 | 1646.4 | –
293.15 K, x1 = 0.9447 | – | – | – | 125.55
293.15 K, x1 = 1 | 0.302 | 1256.67 | 1653.9 | 160
303.15 K, x1 = 0.028 | – | 837.96 | 1134.5 | –
303.15 K, x1 = 0.0313 | 2.99 | – | – | –
303.15 K, x1 = 0.0365 | 3.28 | – | – | –
303.15 K, x1 = 0.0422 | 3.59 | – | – | –
303.15 K, x1 = 0.0505 | – | – | – | 0.9388
303.15 K, x1 = 0.0577 | – | 885.479 | 1179.8 | –
303.15 K, x1 = 0.0658 | 4.29 | – | – | –
303.15 K, x1 = 0.0775 | 4.56 | – | – | –
303.15 K, x1 = 0.0894 | 4.84 | – | – | –
303.15 K, x1 = 0.0967 | – | 936.347 | 1230.9 | –
303.15 K, x1 = 0.0993 | – | – | – | 1.76
303.15 K, x1 = 0.1294 | 5.15 | – | – | –
303.15 K, x1 = 0.1409 | 5.25 | – | – | –
303.15 K, x1 = 0.1459 | – | 987.6 | 1286.2 | –
303.15 K, x1 = 0.1703 | 5.38 | – | – | –
303.15 K, x1 = 0.191 | – | – | – | 3.674
303.15 K, x1 = 0.1952 | – | 1028.35 | 1339.4 | –
303.15 K, x1 = 0.2002 | 5.35 | – | – | –
303.15 K, x1 = 0.2456 | 5.16 | – | – | –
303.15 K, x1 = 0.2819 | 4.8 | – | – | –
303.15 K, x1 = 0.291 | – | – | – | 6.277
303.15 K, x1 = 0.3213 | – | 1102.55 | 1433.2 | –
303.15 K, x1 = 0.3507 | 4.31 | – | – | –
303.15 K, x1 = 0.3918 | – | – | – | 8.954
303.15 K, x1 = 0.3937 | 3.94 | – | – | –
303.15 K, x1 = 0.4002 | – | 1135.04 | 1477.2 | –
303.15 K, x1 = 0.4334 | 3.52 | – | – | –
303.15 K, x1 = 0.464 | 3.16 | – | – | –
303.15 K, x1 = 0.4929 | – | – | – | 12.66
303.15 K, x1 = 0.4965 | – | 1165.53 | 1516.7 | –
303.15 K, x1 = 0.5398 | 2.59 | – | – | –
303.15 K, x1 = 0.5988 | – | 1190.7 | 1550.9 | –
303.15 K, x1 = 0.6117 | – | – | – | 18.63
303.15 K, x1 = 0.635 | 2.01 | – | – | –
303.15 K, x1 = 0.6904 | – | 1208.71 | 1574 | –
303.15 K, x1 = 0.7331 | – | – | – | 29.44
303.15 K, x1 = 0.7918 | 1.04 | – | – | –
303.15 K, x1 = 0.7923 | – | – | – | 38
303.15 K, x1 = 0.8011 | – | 1226.21 | 1597.3 | –
303.15 K, x1 = 0.8425 | – | – | – | 47.82
303.15 K, x1 = 0.8824 | – | 1236.99 | 1612.7 | –
303.15 K, x1 = 0.894 | 0.702 | – | – | –
303.15 K, x1 = 0.8956 | – | – | – | 59.95
303.15 K, x1 = 0.9384 | 0.625 | – | – | –
303.15 K, x1 = 0.94 | – | 1243.5 | 1622.4 | –
303.15 K, x1 = 0.9447 | – | – | – | 73.49
303.15 K, x1 = 1 | 0.516 | 1249.54 | 1629.8 | 90.75
